Measurements from patent US11952365B2, “Anti-viral compounds” (Aligos Therapeutics, Inc., priority 2020, dated 2024).
Read-outs that look alike come from different tables or passages of the source.

How the values were obtained:
[1] = Cytotoxicity plates without OC43 virus (cell-titer-glo); type: cell-based, human; conditions: human; HeLa cells without OC43 virus, class symbols
How it was run: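 Run as a virus-free counterpart of the OC43 cytopathic-effect assay. Attached HeLa cells received compound dilutions in EMEM with 2% FBS and were kept 6 days at 33 °C. Cell viability was then measured by CellTiter-Glo luminescence.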

[2] = tested on: human beta-coronavirus OC43; experiment: microbe, parasite or virus in culture; type: cell-based; conditions: Betacoronavirus 1, OC43, HeLa, 144 h
[3] = molecular target: 3CLpro (Severe acute respiratory syndrome coronavirus 2, UniProt P0DTD1); experiment: SARS-CoV-2 3CLpro protease assay (duplex, SAMDI-MS); type: biochemical; design: For the duplex assay, 3CLpro and HRV3C was added; conditions: 3CLpro, 30 mins preincubation, read-out: SARS-Cov-2 IC50
[4] = tested on: SARS-CoV-2-GHB-03021/2020; experiment: SARS-CoV-2 Infection Model in Huh7 Cells; type: cell-based; conditions: Severe acute respiratory syndrome coronavirus 2, Huh-7, 96 h, SARS-CoV-2, day 4 p.i., MTS
[5] = in vitro; conditions: human
[6] = molecular target: HRV3C (Human rhinovirus 14, UniProt P03303); experiment: HRV3C protease assay (duplex, SAMDI-MS); type: biochemical, HRV; conditions: 30 mins preincubation
How it was run: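 HRV3C was preincubated 30 min with compound alongside 3CLpro at ambient temperature, then two biotinylated peptide substrates were added for 30 min. Quenching used 0.5% formic acid (final). Cleaved product was captured on neutravidin SAMDI arrays and quantified by MALDI-TOF as product/internal-standard AUC ratio; IC50 from four-parameter fit.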

[7] = molecular target: T1, human cathepsin L (Homo sapiens, UniProt P07711); experiment: cathepsin L assay; type: biochemical; conditions: 10 pM human cathepsin L, Z-FR-AMC 2 μM, class symbols
T1 construct: purchased R&D Systems
How it was run: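 Reactions began by adding 2 μM (final) Z-FR-AMC substrate to 10 pM human cathepsin L that had been preincubated 30 min with inhibitor. Kinetic AMC fluorescence at 355/460 nm over 30 min at 2-min intervals; four-parameter fitting gave IC50 values.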

[8] = tested on: SARS-CoV-2-GHB-03021/2020; experiment: microbe, parasite or virus in culture; type: cell-based; conditions: Severe acute respiratory syndrome coronavirus 2, Vero C1008, 96 h; read-out: VeroE6 + CP (EC50)
[9] = in vitro; conditions: African green monkey, VeroE6 + CP (CC50), Vero E6-eGFP cells with CP-100356, absence of virus, MTS
[10] = OC43 in HeLa cells, 6 days at 33° C., class symbols, read-out: EC50
[11] = HRV3C, class symbols, read-out: HRV IC50
[12] = HRV3C, bound, read-out: HRV IC50
[13] = OC43 in HeLa cells, 6 days at 33° C., bound, read-out: EC50

Structure (SMILES) | CC50 at 6 days [1] [µM] | EC50 [2, 10] [µM] | IC50 ([3]; class symbols) [µM] | EC50 ([4]; numeric bounds) [µM] | CC50 [5] [µM] | IC50 [6, 11] [µM] | IC50 [7] [µM] | EC50 [8] [µM] | EC50 ([4]; class symbols) [µM] | IC50 [6, 12] [µM] | IC50 ([6]; HRV IC50, HRV3C, bound) [µM] | EC50 [2] [µM] | EC50 [2, 13] [µM] | IC50 ([6]; HRV IC50, HRV3C, class symbols) [µM] | IC50 ([3]; bound) [µM] | CC50 ([9]; numeric bounds) [µM] | CC50 ([9]; class symbols) [µM]
O=C(NCc1ccccc1)C(=O)[C@H](C[C@@H]1CCNC1=O)NC(=O)[C@@H]1C[C@@H](C2CCCCC2)CN1C(=O)c1cc2ccccc2[nH]1 [Compound 20] | > 10 | < 0.1 | 0.2 to 2 | > 100 | 1 to 10 | 0.2 to 2 | ≥ 10 | 1 to 10 |  |  |  |  |  |  |  |  | 
COc1cccc2[nH]c(C(=O)N3C[C@H]4[C@@H]([C@H]3C(=O)N[C@@H](C[C@@H]3CCCNC3=O)C(=O)C(=O)NC3CC3)C4(C)C)cc12 [Compound 57, (3S)—N-cyclopropyl-3-{[(1R,2S,5S)-3-(4-methoxy-1H-indole-2-carbonyl)-6,6-dimethyl-3-azabicyclo[3.1.0]hexan-2-yl]formamido}-2-oxo-4-[(3S)-2-oxopiperidin-3-yl]butanamide] | > 10 | 0.1 to 1 | 0.02 to 0.2 |  | > 100 | 0.2 to 2 | ≥ 10 |  | 1 to 10 |  |  |  |  |  |  |  | 
N#Cc1cccc2[nH]c(C(=O)N3C[C@@H]4CCC[C@@H]4[C@H]3C(=O)N[C@@H](C[C@@H]3CCNC3=O)C(=O)CO)cc12 [Compound 66, (1S,3aR,6aS)-2-(4-cyano-1H-indole-2-carbonyl)-N-[(2S)-4-hydroxy-3-oxo-1-[(3S)-2-oxopyrrolidin-3-yl]butan-2-yl]-hexahydro-1H-cyclopenta[c]pyrrole-1-carboxamide] | > 10 | 1 to 10 | 0.02 to 0.2 |  | > 100 |  | ≥ 10 |  | 10 to 100 | > 10 |  |  |  |  |  |  | 
N#Cc1cccc2[nH]c(C(=O)N3C[C@@H]4CCC[C@@H]4[C@H]3C(=O)NC(C[C@@H]3CCNC3=O)C(=O)COCc3ccccc3)cc12 (stereo partly drawn) [Compound 66A, (1S,3aR,6aS)—N-[4-(benzyloxy)-3-oxo-1-[(3S)-2-oxopyrrolidin-3-yl]butan-2-yl]-2-(4-cyano-1H-indole-2-carbonyl)-hexahydro-1H-cyclopenta[c]pyrrole-1-carboxamide] | > 10 | 0.1 to 1 | 0.2 to 2 |  | > 10 |  | ≥ 10 |  | 1 to 10 | > 10 |  |  |  |  |  |  | 
COc1ccnc2[nH]c(C(=O)N3C[C@@H]4CCC[C@@H]4[C@H]3C(=O)N[C@@H](C[C@@H]3CCNC3=O)C(=O)CO)cc12 [Compound 67, (1S,3aR,6aS)—N-[(2S)-4-hydroxy-3-oxo-1-[(3S)-2-oxopyrrolidin-3-yl]butan-2-yl]-2-{4-methoxy-1H-pyrrolo[2,3-b]pyridine-2-carbonyl}-hexahydro-1H-cyclopenta[c]pyrrole-1-carboxamide] | > 10 | 1 to 10 | 0.02 to 0.2 |  | > 100 |  | ≥ 10 |  | 10 to 100 | > 10 |  |  |  |  |  |  | 
COc1c(Cl)ccc2[nH]c(C(=O)N3C[C@@H]4CCC[C@@H]4[C@H]3C(=O)N[C@@H](C[C@@H]3CCNC3=O)C(=O)CO)cc12 [Compound 68, (1S,3aR,6aS)-2-(5-chloro-4-methoxy-1H-indole-2-carbonyl)-N—((S)-4-hydroxy-3-oxo-1-((S)-2-oxopyrrolidin-3-yl)butan-2-yl)octahydrocyclopenta[c]pyrrole-1-carboxamide] | > 10 | 0.1 to 1 | 0.02 to 0.2 |  | > 100 |  | ≥ 10 |  | 1 to 10 | > 10 |  |  |  |  |  |  | 
COCC(=O)[C@H](C[C@@H]1CCNC1=O)NC(=O)[C@@H]1[C@H]2CCC[C@H]2CN1C(=O)c1cc2c(OC)cccc2[nH]1 [Compound 71, (1S,3aR,6aS)-2-(4-methoxy-1H-indole-2-carbonyl)-N-[(2S)-4-methoxy-3-oxo-1-[(3S)-2-oxopyrrolidin-3-yl]butan-2-yl]-hexahydro-1H-cyclopenta[c]pyrrole-1-carboxamide] | > 10 | 0.1 to 1 | 0.2 to 2 |  | > 100 |  | ≥ 10 |  | 1 to 10 |  | > 10 |  |  |  |  |  | 
COc1cccc2oc(C(=O)N3C[C@@H]4CCC[C@@H]4[C@H]3C(=O)N[C@@H](C[C@@H]3CCNC3=O)C(=O)CO)cc12 [Compound 94, (1S,3aR,6aS)—N-[(2S)-4-hydroxy-3-oxo-1-[(3S)-2-oxopyrrolidin-3-yl]butan-2-yl]-2-(4-methoxy-1-benzofuran-2-carbonyl)-hexahydro-1H-cyclopenta[c]pyrrole-1-carboxamide] | > 10 | 1 to 10 | 0.2 to 2 |  | > 100 |  | ≥ 10 |  | 10 to 100 | > 10 |  |  |  |  |  |  | 
O=C(NCc1ccccc1)C(=O)[C@H](Cc1cc[nH]n1)NC(=O)[C@@H]1CC2(CC2)CN1C(=O)c1cc2ccccc2[nH]1 [Compound 96, (S)—N—((S)-4-(benzylamino)-3,4-dioxo-1-(1H-pyrazol-3-yl)butan-2-yl)-5-(1H-indole-2-carbonyl)-5-azaspiro[2.4]heptane-6-carboxamide] | > 10 |  | 2 to 20 | > 100 | > 10 |  | 1 to 10 |  |  |  | > 10 | 1 to 10 |  |  |  |  | 
COc1cccc2[nH]c(C(=O)N3Cc4ccccc4C[C@H]3C(=O)N[C@@H](C[C@@H]3CCNC3=O)C(=O)C(=O)NC3CC3)cc12 [Compound 97, (S)—N—((S)-4-(cyclopropylamino)-3,4-dioxo-1-((S)-2-oxopyrrolidin-3-yl)butan-2-yl)-2-(4-methoxy-1H-indole-2-carbonyl)-1,2,3,4-tetrahydroisoquinoline-3-carboxamide] | > 10 |  | 0.2 to 2 | > 100 | > 100 |  | ≥ 10 |  |  |  |  |  | > 10 | 0.02 to 0.2 |  |  | 
O=C(NCc1ccccc1)C(=O)[C@H](Cc1ccncc1)NC(=O)[C@@H]1CC2(CC2)CN1C(=O)c1cc2ccccc2[nH]1 [Compound 112] | > 10 |  |  | > 100 | > 10 |  | 1 to 10 |  |  | > 10 |  |  | > 10 |  | > 10 |  | 
COc1cccc2[nH]c(C(=O)N3C[C@@H]4CCC[C@@H]4[C@H]3C(=O)N[C@@H](CN3C[C@H](O)CC3=O)C(=O)C(=O)NC3CC3)cc12 [Compound 178] |  |  | 2 to 20 | > 10 | > 10 |  | ≥ 10 | > 50 |  | > 10 |  |  |  |  |  | > 50 | 
COc1cccc2[nH]c(C(=O)N3CCC4(CC4)C[C@H]3C(=O)N[C@@H](C[C@@H]3CCNC3=O)C(=O)C(=O)NC3CC3)cc12 [Compound 179] |  |  | < 0.02 | > 10 | > 10 | 0.2 to 2 | 1 to 10 | 10 to 100 |  |  |  |  |  |  |  | > 50 | 
O=C(NC1CC1)C(=O)[C@H](C[C@@H]1CCNC1=O)NC(=O)[C@@H]1CC2(CCN1C(=O)c1cc3c(C4CC4)cccc3[nH]1)CC2 [Compound 180] |  |  | 0.02 to 0.2 |  | > 10 | 0.2 to 2 | 1 to 10 | 1 to 10 | 1 to 10 |  |  |  |  |  |  | > 50 | 
O=C(NC1CC1)C(=O)[C@H](C[C@@H]1CCNC1=O)NC(=O)[C@@H]1CC2(CCN1C(=O)c1cc3ccccc3o1)CC2 [Compound 181] |  |  | 0.02 to 0.2 |  | > 10 | 0.2 to 2 | 1 to 10 | 1 to 10 | 1 to 10 |  |  |  |  |  |  | > 50 | 
O=C(NCCCC(F)(F)F)C(=O)[C@H](C[C@@H]1CCNC1=O)NC(=O)[C@@H]1[C@H]2CCC[C@H]2CN1C(=O)c1cc2c(Cl)cc(Cl)cc2[nH]1 [Compound 182] |  |  | 0.2 to 2 | > 10 | 1 to 10 |  | ≥ 10 | 1 to 10 |  | > 10 |  |  |  |  |  |  | > 10
CC(C)CCCNC(=O)C(=O)[C@H](C[C@@H]1CCNC1=O)NC(=O)[C@@H]1[C@H]2CCC[C@H]2CN1C(=O)c1cc2c(Cl)cc(Cl)cc2[nH]1 [Compound 183] |  |  | 0.02 to 0.2 |  | 1 to 10 |  | 1 to 10 | < 1 | 1 to 10 | > 10 |  |  |  |  |  |  | 1 to 10
